This passage reports XC50 results from ChEMBL document CHEMBL1157539, “Thousands of chemical starting points for antimalarial lead identification” (Nature, 2010).

Each structure is given as a SMILES string.

This experiment deals with Plasmodium falciparum. Nature of the experiment: GSK_TCMDC: Inhibition of Plasmodium falciparum 3D7 in whole erythrocytes, using parasite LDH activity as an index of growth. The format is functional, organism-based. Particulars: Plasmodium falciparum, 3D7.

`O=C1COc2ccccc2N1C/C=C(\CN1CCC(c2ccccc2)CC1)c1cc(Cl)cc(Cl)c1` displayed an XC50 of 215 nM. For `CNc1c2c(nc3ccc(NC(=O)CCCCCCc4ccccc4)cc13)CCCC2` the value was 915 nM.

For `CCCc1c(C(=O)NC2CCC(CN3CCC(c4c[nH]c5ccccc45)CC3)CC2)cnn1-c1c(Cl)cc(Cl)cc1Cl` (stereo not given), the XC50 was determined as 820 nM. Then `O=C1CCCN1CCCNCc1ccc(-c2ccc(-c3nc4cc(C(F)(F)F)ccc4[nH]3)s2)cc1`, with 380 nM; and `CN(CC(=O)N1CCN(S(=O)(=O)c2cccc(Cl)c2)CC1CN1CCCC1)c1ccc(Cl)c(Cl)c1` (stereo not given), with 1240 nM.

`CCn1cc(C=C2Oc3c(ccc(O)c3CN3CCCCC3C)C2=O)c2ccccc21` (stereo not given) gave an XC50 of 1020 nM. For `O=C(NC1CCCCC1)N(Cc1ccc(-c2cccc(CNCc3ccc4c(c3)OCO4)c2)cc1)C1CCN(Cc2ccccc2)CC1` the value was 688 nM; for `c1ccc(Oc2ccc(Nc3ccnc(Nc4cccc(CNCCCN5CCOCC5)c4)n3)cc2)cc1`, 1040 nM; for `O=C(NCc1ccccc1)c1ncn(CCCN2CCC(N3CCCC3)CC2)c1-c1ccc(Cl)c(Cl)c1`, 1120 nM. For `c1ccc(COc2ccccc2COc2ccccc2-c2ccc3cccnc3n2)cc1` the value was 921 nM; for `CC(C)(C)C1CCC(CC2=C(C(=O)O)c3ccccc3C2=O)CC1` (stereo not given), 1100 nM; for `CC1CCN(C(=O)[C@H](Cc2c[nH]c3ccccc23)NS(=O)(=O)c2ccc(Cl)cc2)CC1`, 667 nM. The compound `Cn1c(=N)n(CC(=O)N2CCc3ccc(Cl)cc3C2Cc2ccc(Cl)c(Cl)c2)c2ccccc21` (stereo not given) gave an XC50 of 869 nM. As for `Clc1cc(Cl)c2cc(CN[C@H]3CCC[C@@H]3CNc3nc4ccccc4[nH]3)[nH]c2c1`, the XC50 worked out at 275 nM. Compound `COc1ccc2nccc([C@@H](O)CN3CCC(NCc4cnc5c(c4)NC(=O)CS5)C(F)C3)c2c1` (stereo not given in full) had an XC50 of 769 nM.

The compound `CC(C)CNCc1cccc(-c2cccc(CNC3CCN(Cc4ccccc4)CC3)c2)c1` showed an XC50 of 183 nM.

In turn, `N#Cc1cccc(CN2CCCN(c3ccc(NC(=O)c4cccs4)cc3)CC2)c1` showed an XC50 of 809 nM. For `O=C(/C=C/c1ccc(Cl)c(Cl)c1)NCCCCCN1CC[C@H](NC(=O)Nc2ccc(Oc3ccccc3)cc2)C1` the value was 703 nM; for `C=CC[C@H](C[C@H](O)[C@H](Cc1ccccc1)NC(=O)c1ccc(-c2cccnn2)cc1)C(=O)NC1CCCCC1`, 1190 nM; for `COc1ccc(C2CC(c3cccs3)=NN2C(=O)COc2cccc3c2CCCC3O)cc1OC` (stereo not given), 1150 nM. For `CCCNc1nc(Nc2ccccc2C)nc2ccccc12` the value was 887 nM; for `O=C(NC1CCN(CCN2CCC(c3ccccc3C(F)(F)F)CC2)CC1)c1ccc(-c2ccc(Cl)cc2)cc1`, 714 nM; for `c1cc(CNCC2CCCO2)cc(-c2cccc(-c3nc4ccccc4[nH]3)c2)c1` (stereo not given), 859 nM. Turning to `COc1ccc(C(=O)N[C@@H](CC(C)C)C(=O)N[C@H](/C=N/NC(=O)c2ccccc2)CCc2ccccc2)cc1OCCN1CCOCC1`, the XC50 came out at 173 nM. As to `OC(CNCc1ccccc1OCc1ccccc1)c1cccc(I)c1` (stereo not given), the XC50 was found to be 418 nM. Then `Cn1nc(-c2ccccc2F)c2cc(C(=O)Nc3cccnc3)sc21`, with 810 nM; and `CNCCNCc1cccc(-c2cccc(-c3nc4cc(C(F)(F)F)ccc4[nH]3)c2)c1`, with 203 nM. For `O=C(Nc1ccc(N2CCN(Cc3cccc(F)c3)CC2)cc1)c1cccs1` the value was 682 nM; for `COc1cc(C=CC(=O)N2CCN(Cc3cccc(C)c3)CC2)ccc1OCc1c(C)noc1C`, 1030 nM. For `Cn1cccc1CCNCc1ccc(-c2cccc(-c3nc4cc(F)ccc4[nH]3)c2)cc1` the value was 1220 nM; for `N=C(N)NN=C1C=Cc2cccc3cccc1c23`, 609 nM. In turn, `COc1cc2c(OC)cccc2cc1CNCCCCCCNCc1cc2cccc(OC)c2cc1OC` came in with an XC50 of 823 nM. For the compound `O=C(NNC(=O)c1ccc(CCN2CCC(c3nc(COCC(F)(F)F)c(-c4ccc(F)cc4)o3)CC2)cc1)Nc1ccc(Oc2ccccc2)cc1`, the XC50 was 708 nM. For `Cc1cc(NC(=O)NCCN2CCC(NC(=O)c3ccc(F)cc3)CC2)c2ccccc2n1` the value was 331 nM; for `Cc1csc(-c2nonc2NC(=O)COc2ccccc2C(C)C)n1`, 551 nM. The compound `Cc1ccc(NC(=N)Nc2ncccc2OCc2c(F)cccc2Cl)cc1` displayed an XC50 of 1190 nM.

The compound `NCc1cccc(-c2cccc(CNC3CCN(Cc4ccccc4)CC3)c2)c1` returned an XC50 of 719 nM. For `CC(C)c1ccc(OCCCON2C(=N)N=C(N)NC2(C)C)cc1` the value was 3.2 nM; for `O=C(Nc1cc(Oc2ccc(O)cc2)cc([N+](=O)[O-])c1)c1cc(-c2ccc(F)cc2)no1`, 955 nM; for `O=C(Cn1c(=O)cnc2ccccc21)Nc1cccc(C(=O)Nc2cccc(C(F)(F)F)c2)c1`, 277 nM. Regarding `Cc1cc(Br)c(OCCCON2C(=N)N=C(N)NC2(C)C)c(Br)c1`, the XC50 amounted to 3.2 nM. For `CCOc1ccc2c(N/N=C/c3cccc([N+](=O)[O-])c3)cc(C)nc2c1` the value was 224 nM; for `Oc1cccc(Nc2nc(NCC3CCCO3)c3ccccc3n2)c1` (stereo not given), 812 nM.

As to `CC(C)(C)c1ccc2[nH]c(-c3ccc(/C=C/C(=O)NCc4ccc(Cl)c(Cl)c4)cc3)nc2c1`, the XC50 stood at 35.4 nM. For `CC(C)CN1CCN(CCNc2c3ccccc3nc3ccccc23)CC1` the value was 818 nM; for `CCCN1CCN(CCCNC(=O)c2cc3c(-c4ccc(Cl)cc4)nn(C)c3s2)CC1`, 1100 nM. Take `COc1cc(-c2cnc(N)c(-c3nc4ccccc4[nH]3)c2)cc(OC)c1OC`: the XC50 is 191 nM.

`Cc1ccc(S(=O)(=O)NC2CCN(CCNC(=O)Nc3cc(C)nc4ccccc34)C2)cc1` (stereo not given) registered an XC50 of 1040 nM. Then `Cc1cc(NC(=O)NCCN2CCC(NC(=O)c3ccc(Cl)cc3)CC2)c2ccccc2n1`, with 381 nM. With `Cc1ccc(C)c(NC(=O)CC2C(=O)N(c3ccccc3)C(=S)N2Cc2ccco2)c1` (stereo not given), the XC50 came to 570 nM.

`CN1CCN(CC(=O)Nc2ccc(-c3cccc(-c4nc5cc(C(F)(F)F)ccc5[nH]4)c3)cc2)CC1` yielded an XC50 of 399 nM.

In the case of `CCc1sc(CN(CCCNc2cc(=O)c3ccccc3[nH]2)Cc2sc(CC)c(Br)c2-c2ccsc2)c(-c2ccsc2)c1Br`, the XC50 was found to be 94.6 nM. Then `O=C(N[C@@H](CC1CCCCC1)C(=O)NC1CCCCCC1)c1ccc(O)c(-c2ccc(Cl)c(Cl)c2)c1`, with 102 nM; and `N[C@@H](COc1cccc2c(-c3ccncc3)c(-c3cccc(NC(=O)Nc4ccccc4)c3)nn12)c1ccccc1`, with 408 nM; and `CC(C)(C)c1ccc(-c2nnc(N)nc2N)cc1`, with 862 nM. Then `NC(=O)c1cnc2ccc(-c3cncs3)cc2c1Nc1ccc(F)c(Cl)c1`, with 182 nM; and `OCC1CCN(Cc2ccc(-c3ccc(-c4nc5ccccc5[nH]4)cc3)cc2)CC1`, with 898 nM.

Regarding `Cc1cccc2c(/C=C/C(=O)NC3CCC(CCN4CCc5ccc(C#N)cc5CC4)CC3)c[nH]c12` (stereo not given), the XC50 worked out at 1220 nM.

On to `O=C(Nc1cccc(-c2nc3ccccc3[nH]2)c1)c1cccc(NC(=O)c2ccco2)c1`, for which the XC50 was found to be 360 nM. Regarding `CC(Cc1ccc(OCc2ccccc2)c(Cl)c1)NCC(O)c1cccc(C(F)(F)F)c1` (stereo not given), the XC50 stood at 940 nM. Then `COc1cc(C(=O)NC2CC(C)(C)N(C)C(C)(C)C2)ccc1-c1cc2cc(Cl)c(Cl)cc2[nH]1`, with 1140 nM; and `C[C@H]1CN(Cc2cccc(-c3cc(CNC(=O)c4cccc(C(=O)c5ccc(Cl)c(Cl)c5)c4)ccc3F)c2)CCN1`, with 1140 nM. For `CCc1cc(OC)ccc1C1CCN(CCCCNC(=O)c2ccc(NC(=O)c3ccc(Cl)cc3)cc2)CC1` the value was 1070 nM; for `CCn1c(CN2CCN(Cc3ccccc3)CC2)nc2cc(NC(=O)c3cccs3)ccc21`, 402 nM. Then `Cn1cnc(CCNC(=O)c2ccc(-c3cccc(-c4nc5cc(C(F)(F)F)ccc5[nH]4)c3)cc2)c1`, with 726 nM; and `Cc1[nH]c(C)c(-c2ccc(OCc3cc(C(F)(F)F)cc(C(F)(F)F)c3)nc2)c(=O)c1Br`, with 152 nM; and `CC(C)(Oc1c(C2CCN(CCCCNC(=O)c3ccc(-c4ccc(Cl)cc4)cc3)CC2)ccc2c1CCCC2)C(N)=O`, with 1090 nM. In turn, `O=c1n(CC2CCCCC2)c2cc(Cl)cc(OCCNc3ccncc3)c2n1CC1CCCCC1` came in with an XC50 of 593 nM. On to `CN1CCCN(Cc2ccc(-c3cccc(NC(=O)c4cccc(Cl)c4)c3)cc2)CC1`, for which the XC50 was found to be 837 nM. Then `CC(C)N1CCC(N(Cc2ccc(-c3ccc(C(F)(F)F)cc3)cc2)C(=O)Cn2c(SCc3cccc(F)c3F)cc(=O)c3c2CCC3)CC1`, with 1160 nM.

`O=C(Nc1cccc(-c2cccc(-c3nc4ccccc4[nH]3)c2)c1)Nc1ccc(Cl)c(Cl)c1` had an XC50 of 131 nM.

`COc1ccc(N2CCN(c3nc(N)c4cc(OC)c(OC)cc4n3)CC2C)cc1` (stereo not given): the XC50 was 1420 nM. On to `COc1cc(-c2nc(-c3ccccc3)c(-c3ccccc3)[nH]2)cc(OC)c1O`, for which the XC50 amounted to 774 nM. `COc1cccc(Nc2nc(C)cc(NC3CCCC3)n2)c1` registered an XC50 of 1110 nM. On to `Fc1ccc2c(NN=Cc3ccccc3)ccnc2c1`, for which the XC50 was 739 nM.

Turning to `COc1ccc(NC(=O)CSc2nc(-c3ccccc3Cl)ns2)cc1OC`, the XC50 amounted to 759 nM. Then `O=C(Cc1c[nH]cn1)Nc1cccc(-c2ccc(-c3nc4ccccc4[nH]3)cc2)c1`, with 761 nM. For `COc1ccccc1CCNc1nc(C)cc(NCCC(=O)NCCOc2ccccc2)n1` the value was 1370 nM; for `CCc1cc(-c2onc(C)c2-c2cc3ccccc3o2)c(O)cc1OC`, 969 nM. Then `Cc1cc(N[C@@H](CC(C)C)C(=O)NC2CCCC2)nc(NCc2ccccc2C)n1`, with 1340 nM; and `Cc1cccc2nc(-c3cccc(-c4ccc(CNCCNC(=O)c5ccnn5C)cc4)c3)[nH]c12`, with 167 nM; and `CC(C)Nc1cc(C(=O)N[C@@H](Cc2ccccc2)[C@H](O)CNC2CCOCC2)c(F)c(N2CCCCS2(=O)=O)c1`, with 183 nM. For the compound `O=C(CN(c1cccc(C(F)(F)F)c1)S(=O)(=O)c1ccc(Cl)cc1)NCCC(c1ccccc1)c1ccccc1`, the XC50 worked out at 743 nM.

Take `Cc1nnsc1C(=O)Nc1cccc(-c2ccc(-c3nc4ccccc4[nH]3)s2)c1`: the XC50 is 885 nM. Then `CCC(N)(C#Cc1ccc(-c2c(C)[nH]c(C)c(Br)c2=O)cc1)CC`, with 41.5 nM.
